Laboratory results as given in PMC6193035, “Novel small molecules affecting cell membrane as potential therapeutics for avian pathogenic Escherichia coli” (Scientific Reports, 2018).
Converted amounts (≈) assume the structure as drawn. Marks after values point to notes of the source that are not given here.

Experiments:
[1] = tested on: APEC O2; test: MIC and MBC determination in M63 media; format: cell-based; conditions: Escherichia coli
[2] = tested on: biofilm embedded APEC O78; test: MBEC High-throughput (HTP) assay; format: cell-based, Escherichia coli
Experimental: The effect of cidal SMs against biofilm embedded APEC was determined using MBEC High-throughput (HTP) assay (Innovotech Inc., AB, Canada)[22]. Briefly, 150 μL of 0.05 OD600 adjusted APEC O78 culture was aliquoted into each well of the MBEC device containing polystyrene pegs and incubated at 37 °C for 36 h in LB media under stationary condition. […] The plate was incubated in the dark for 18 h at 37 °C with rotation at 110 rpm. The DMSO (1%) and […] media were used as positive and negative controls, respectively. Following incubation, MIC of SMs in challenged plate was recorded. The SMs exposed pegs were then transferred to a new 96-well plate containing PBS and sonicated for 30 mins (Aquasonic ultrasonic cleaner, VWR) to disrupt the biofilm. The sonicated suspensions were ten-fold serially diluted and plated on LB agar plate. Biofilm embedded APEC bacteria were enumerated and minimum biofilm eradication concentration (MBEC) of SMs were determined as described previously. Two independent experiments were conducted.

[3] = tested on: APEC O1-63; test: MIC and MBC determination in M63 media; format: cell-based; conditions: Escherichia coli; APEC O1-63, M63 media
[4] = tested on: APEC O78; test: MIC and MBC determination in M63 media; format: cell-based, Escherichia coli; conditions: Escherichia coli; for MBC: subculture on LB agar
Experimental: (§1) One microlitre SM of each concentration was transferred to each well of a 96-well plate containing 100 µL of the 0.05 OD600 adjusted APEC O78 culture in M63 media. Growth was monitored in Sunrise - Absorbance microplate reader as described above. MIC was indicated by lowest concentration of SM with non-elevated OD600 measurement. MBC was determined by absence of APEC growth on LB agar plate following subculture. […] Two independent experiments were conducted.

[5] = tested on: APEC O35; test: MIC and MBC determination in M63 media; format: cell-based; conditions: Escherichia coli
[6] = tested on: APEC O2-211; test: MIC and MBC determination in M63 media; format: cell-based; conditions: Escherichia coli; APEC O2-211, M63 media
[7] = tested on: APEC O109; test: MIC and MBC determination in M63 media; format: cell-based; conditions: Escherichia coli
[8] = tested on: APEC O78-53; test: MIC and MBC determination in M63 media; format: cell-based; conditions: Escherichia coli; APEC O78-53, M63 media
Experimental: as §1

[9] = tested on: APEC O18; test: MIC and MBC determination in M63 media; format: cell-based; conditions: Escherichia coli
[10] = tested on: APEC O78; test: Loss of 260/280 nm absorbing materials assay; format: cell-based, Escherichia coli; conditions: 2X MBC, 1 h; for Absorbance 280 nm of treated supernatant: DMSO 2.58; for Absorbance 280 nm of treated supernatant / Absorbance 260 nm of treated supernatant: superscript a P < 0.05 vs DMSO; for Absorbance 260 nm of treated supernatant: DMSO 3.77
Experimental: Membrane permeability assays (crystal violet (CV) uptake and loss of 260/280 nm absorbing materials) were conducted as described previously. […] CV uptake was measured using the formula: (OD DMSO − OD SM/OD DMSO × 100). Two independent experiments in duplicates were conducted.

[11] = tested on: APEC O1; test: MIC and MBC determination in M63 media; format: cell-based; conditions: Escherichia coli
[12] = tested on: APEC O78; test: Bacterial cytological profiling by confocal microscopy; format: cell-based, Escherichia coli; conditions: 2X MBC, 2 h
Experimental: Confocal microscopy was used for bacterial cytological profiling (BCP) to identify the cellular pathways targeted by SMs as described previously. […] After incubation, treated cultures were centrifuged, washed, and resuspended in 100 µL PBS. FM4-64 (#T13320 Molecular Probes/Invitrogen) (1 µg/mL) and SYTO-9 (#S34854 Molecular Probes/Invitrogen) (5 µM) were added to the bacterial cultures and incubated for 45 mins at room temperature with shaking at 150 rpm. Cultures were then centrifuged, washed, and resuspended in PBS to 1/10th volume of the original cultures.

[13] = tested on: intracellular APEC O1 in THP-1 cells; test: Intracellular survival assay; format: cell-based, Escherichia coli; conditions: for minimal effective concentration: Escherichia coli, O1, THP-1, 6 h treatment, read-out: SMs intracellular APEC clearance concentration; for concentration at which the SM significantly (P < 0.01) reduced intracellular APEC (superscript of t-statistic): O1, THP-1, 6 h
Experimental: (§2) Intracellular survival assay was conducted as described previously[28],[29] to determine the effect of cidal SMs on APEC survival in phagocytic (HD11, THP-1) and non-phagocytic (Caco-2) cells. Briefly, mid-logarithmic phase grown APEC O78, O1, and O2 were washed and adjusted to 1 × 10^7 CFU/mL in cell culture incomplete media (no FBS and antibiotics). One-hundred microlitres adjusted APEC suspension was added at multiplicity of infection (MOI) 10 to wells of 96-well cell culture plate containing cultured macrophage (HD11, THP-1) and epithelial cells (Caco-2) and incubated for 1 h and 3 h, respectively. […] The cells were then lysed with 100 µL of 0.1% Triton X-100 for 5 mins, serially diluted, and plated on LB agar plate to enumerate viable bacteria. The intracellular bacteria in SMs treated wells were compared with DMSO (1%) treated wells. Two independent experiments in duplicate wells for each concentration of SMs were conducted.

[14] = tested on: intracellular APEC O78 in HD11 cells; test: Intracellular survival assay; format: cell-based, Escherichia coli; conditions: for minimal effective concentration: Escherichia coli, O78, HD11, 6 h treatment, read-out: SMs intracellular APEC clearance concentration; for intracellular APEC clearance concentration as multiple of MIC (superscript): O78, HD11; for concentration at which the SM significantly (P < 0.01) reduced intracellular APEC (superscript of t-statistic): O78, HD11, 6 h
Experimental: as §2

[15] = tested on: intracellular APEC O1 in HD11 cells; test: Intracellular survival assay; format: cell-based, Escherichia coli; conditions: for minimal effective concentration: Escherichia coli, O1, HD11, 6 h treatment, read-out: SMs intracellular APEC clearance concentration; for concentration at which the SM significantly (P < 0.01) reduced intracellular APEC (superscript of t-statistic): O1, HD11, 6 h
Experimental: as §2

[16] = tested on: intracellular APEC O2 in Caco-2 cells; test: Intracellular survival assay; format: cell-based, Escherichia coli; conditions: for minimal effective concentration: Escherichia coli, O2, Caco-2, 6 h treatment, read-out: SMs intracellular APEC clearance concentration; for intracellular APEC clearance concentration as multiple of MIC (superscript): O2, Caco-2; for concentration at which the SM significantly (P < 0.01) reduced intracellular APEC (superscript of t-statistic): O2, Caco-2, 6 h
Experimental: as §2

[17] = tested on: APEC O8; test: MIC and MBC determination in M63 media; format: cell-based; conditions: Escherichia coli
[18] = tested on: APEC O15; test: MIC and MBC determination in M63 media; format: cell-based; conditions: Escherichia coli

For `CCN1/C(=C/c2ccc3ccccc3[n+]2CC)C=Cc2ccccc21` [SM9], the MBC [1] was 50 µM, the MIC [1] was 25 µM and the “MBEC as multiple of MIC (superscript)” value ([2]; 18 h challenge in M63 media) was “b (1X MIC)”. The MBC [3] was 100 µM, the MIC [3] was 50 µM and the MIC [4] was 25 µM. The MBC [4] was 50 µM, the MBC [5] was 50 µM and the MIC [5] was 25 µM. The MBC [6] was 25 µM, the MIC [6] was 25 µM and the MBC [7] was 50 µM. It also gave an MIC [7] of 25 µM, an MBC [8] of 25 µM and an MIC [8] of 25 µM. For the same compound, the MBC [9] was 100 µM, the MIC [9] was 25 µM and the “260 nm absorbing materials in supernatant compared with DMSO” value [10] was “significantly (P < 0.05, Student’s t-test) increased”. For the same compound, the “280 nm absorbing materials in supernatant compared with DMSO” value [10] was “significantly (P < 0.05, Student’s t-test) increased”, the “Absorbance 280 nm of treated supernatant” value [10] was 2.78^a and the “Absorbance 260 nm of treated supernatant” value [10] was 3.99^a. For the same compound, the MBC [11] was 50 µM, the MIC [11] was 25 µM and the “cytological profile (FM4-64 / SYTO-9 staining)” value [12] was “filamentous or short rods (spheroplasts) morphology (PG synthesis inhibitors)”. The minimal effective concentration [13] was 50 µM, the “intracellular APEC clearance concentration as multiple of MIC (superscript)” value ([13]; O1, THP-1) was “b (2X MIC)” and the “concentration at which the SM significantly (P < 0.01) reduced intracellular APEC (superscript of t-statistic)” value [13] was “b (1X MIC)”. For the same compound, the minimal effective concentration [14] was 100 µM, the “intracellular APEC clearance concentration as multiple of MIC (superscript)” value [14] was “c (4X MIC)” and the “concentration at which the SM significantly (P < 0.01) reduced intracellular APEC (superscript of t-statistic)” value [14] was “c (2XMIC)”. The minimal effective concentration [15] was 100 µM, the “concentration at which the SM significantly (P < 0.01) reduced intracellular APEC (superscript of t-statistic)” value [15] was “b (1X MIC)” and the minimal effective concentration [16] was 100 µM. For the same compound, the “intracellular APEC clearance concentration as multiple of MIC (superscript)” value [16] was “c (4X MIC)”, the “concentration at which the SM significantly (P < 0.01) reduced intracellular APEC (superscript of t-statistic)” value [16] was “c (2XMIC)” and the MBC [17] was 50 µM. It also gave an MIC [17] of 25 µM, an MBC [18] of 100 µM and an MIC [18] of 25 µM.

`CC(=O)OC(C(Br)C(=O)c1ccc([N+](=O)[O-])cc1)C(Cl)(Cl)Cl` (stereo not drawn) [SM10] was tested, and the MBC [1] was 50 µM (≈ 21.7 µg/mL), the MIC [1] was 25 µM (≈ 10.8 µg/mL) and the “concentration that significantly (P < 0.01) reduced biofilm embedded APEC” value ([2]; no eradication) was 1 X MIC. The “MBEC as multiple of MIC” value ([2]; tested 0.5X to 8X MIC) was > 8 X MIC, the MBC [3] was 100 µM (≈ 43.3 µg/mL) and the MIC [3] was 50 µM (≈ 21.7 µg/mL). It also gave an MIC [4] of 25 µM (≈ 10.8 µg/mL), an MBC [4] of 50 µM (≈ 21.7 µg/mL) and an MBC [5] of 50 µM (≈ 21.7 µg/mL). For the same compound, the MIC [5] was 25 µM (≈ 10.8 µg/mL), the MBC [6] was 50 µM (≈ 21.7 µg/mL) and the MIC [6] was 25 µM (≈ 10.8 µg/mL). The MBC [7] was 50 µM (≈ 21.7 µg/mL), the MIC [7] was 25 µM (≈ 10.8 µg/mL) and the MBC [8] was 50 µM (≈ 21.7 µg/mL). The MIC [8] was 25 µM (≈ 10.8 µg/mL), the MBC [9] was 100 µM (≈ 43.3 µg/mL) and the MIC [9] was 25 µM (≈ 10.8 µg/mL). The “260 nm absorbing materials in supernatant compared with DMSO” value [10] was “significantly (P < 0.05, Student’s t-test) increased”, the “280 nm absorbing materials in supernatant compared with DMSO” value [10] was “significantly (P < 0.05, Student’s t-test) increased” and the “Absorbance 280 nm of treated supernatant” value [10] was 2.73^a. For the same compound, the “Absorbance 260 nm of treated supernatant” value [10] was 3.98^a, the MBC [11] was 25 µM (≈ 10.8 µg/mL) and the MIC [11] was 25 µM (≈ 10.8 µg/mL). The “cytological profile (FM4-64 / SYTO-9 staining)” value [12] was “filamentous or short rods (spheroplasts) morphology (PG synthesis inhibitors)”, the minimal effective concentration [13] was > 100 µM and the “concentration at which the SM significantly (P < 0.01) reduced intracellular APEC (superscript of t-statistic)” value [13] was “b (1X MIC)”. The minimal effective concentration [14] was 50 µM, the “intracellular APEC clearance concentration as multiple of MIC (superscript)” value [14] was “b (2X MIC)” and the “concentration at which the SM significantly (P < 0.01) reduced intracellular APEC (superscript of t-statistic)” value [14] was “c (2XMIC)”. For the same compound, the minimal effective concentration [15] was > 100 µM, the “concentration at which the SM significantly (P < 0.01) reduced intracellular APEC (superscript of t-statistic)” value [15] was “b (1X MIC)” and the minimal effective concentration [16] was 100 µM. The “intracellular APEC clearance concentration as multiple of MIC (superscript)” value [16] was “c (4X MIC)”, the “concentration at which the SM significantly (P < 0.01) reduced intracellular APEC (superscript of t-statistic)” value [16] was “b (1X MIC)” and the MBC [17] was 50 µM (≈ 21.7 µg/mL). The MIC [17] was 50 µM (≈ 21.7 µg/mL), the MBC [18] was 100 µM (≈ 43.3 µg/mL) and the MIC [18] was 50 µM (≈ 21.7 µg/mL).
